Measured values from PubChem BioAssay AID2060486 (Molecular Pharmacology Branch, DTP, NCI, 2025).

Tested on: IGROV1 complex spheroids (HUVEC, MSC), viability % test/control
Test: Anticancer human tumor IGROV1 cell line growth inhibition [GQUAD];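 further: spheroids exposed to compounds for 7 days before readout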;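 on viability, T/C: 100% = DMSO vehicle control viability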
Details: for IC50: curve of first compound; for viability, T/C: stronger effect = lower value; active means viability on the fitted dose curve at most 10% of control; inactive means the rest
In short: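 Multi-cell-type spheroids of tumor cells with HUVEC and mesenchymal stem cells, treated with drug combinations. Concentrations descend in half-log steps from near clinical Cmax, or from 10 microM where Cmax is unknown; viability read-out.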

[1] = second compound 0.0316 µM, first compound 0.0316 µM
[2] = second compound 0.0316 µM, first compound 0.1 µM
[3] = second compound 0.0316 µM, first compound 0.316 µM
[4] = second compound 0.0316 µM, first compound 1 µM
[5] = second compound 0.0316 µM, first compound 3.16 µM
[6] = second compound 0.0316 µM, first compound 10 µM
[7] = second compound 0.1 µM, first compound 0.0316 µM
[8] = second compound 0.1 µM, first compound 0.1 µM
[9] = second compound 0.1 µM, first compound 0.316 µM
[10] = second compound 0.1 µM, first compound 1 µM
[11] = second compound 0.1 µM, first compound 3.16 µM
[12] = second compound 0.1 µM, first compound 10 µM
[13] = second compound 0.316 µM, first compound 0.0316 µM
[14] = second compound 0.316 µM, first compound 0.1 µM
[15] = second compound 0.316 µM, first compound 0.316 µM
[16] = second compound 0.316 µM, first compound 1 µM
[17] = second compound 0.316 µM, first compound 3.16 µM
[18] = second compound 0.316 µM, first compound 10 µM
[19] = second compound 1 µM, first compound 0.0316 µM
[20] = second compound 1 µM, first compound 0.1 µM
[21] = second compound 1 µM, first compound 0.316 µM
[22] = second compound 1 µM, first compound 1 µM
[23] = second compound 1 µM, first compound 3.16 µM
[24] = second compound 1 µM, first compound 10 µM
[25] = second compound 3.16 µM, first compound 0.0316 µM
[26] = second compound 3.16 µM, first compound 0.1 µM
[27] = second compound 3.16 µM, first compound 0.316 µM
[28] = second compound 3.16 µM, first compound 1 µM
[29] = second compound 3.16 µM, first compound 3.16 µM
[30] = second compound 3.16 µM, first compound 10 µM
[31] = second compound 10 µM, first compound 0.0316 µM
[32] = second compound 10 µM, first compound 0.1 µM
[33] = second compound 10 µM, first compound 0.316 µM
[34] = second compound 10 µM, first compound 1 µM
[35] = second compound 10 µM, first compound 3.16 µM
[36] = second compound 10 µM, first compound 10 µM

C=CCn1c(=O)c2cnc(Nc3ccc(N4CCN(C)CC4)cc3)nc2n1-c1cccc(C(C)(C)O)n1 + Cc1[nH]c2ccc(F)cc2c1-c1nc2c3cccnc3c3ncccc3c2[nH]1
< 31.6 nM: IC50 (second compound 0.316 µM) | IC50 (second compound 1 µM) | IC50 (second compound 3.16 µM) | IC50 (second compound 10 µM)
155 nM: IC50 (second compound 0.1 µM)
inactive: viability, T/C [1] 98.8% | viability, T/C [2] 66.5% | viability, T/C [3] 10.9% | viability, T/C [7] 98.9% | viability, T/C [8] 72.9% | viability, T/C [9] 12.7% | viability, T/C [13] 40.6% | viability, T/C [14] 19.9%
active: viability, T/C [4] 3.13% | viability, T/C [5] 2.59% | viability, T/C [6] 2.44% | viability, T/C [10] 2.29% | viability, T/C [11] 3.17% | viability, T/C [12] 2.44% | viability, T/C [15] 2.19% | viability, T/C [16] 1.65% | viability, T/C [17] 2.64% | viability, T/C [18] 1.76% | viability, T/C [19] 3.28% | viability, T/C [20] 3.17% | viability, T/C [21] 2.16% | viability, T/C [22] 2.04% | viability, T/C [23] 2.4% | viability, T/C [24] 1.76% | viability, T/C [25] 3.09% | viability, T/C [26] 2.89% | viability, T/C [27] 2.25% | viability, T/C [28] 1.95% | viability, T/C [29] 2.45% | viability, T/C [30] 1.48% | viability, T/C [31] 3.85% | viability, T/C [32] 2.84% | viability, T/C [33] 2.5% | viability, T/C [34] 2.14% | viability, T/C [35] 2.23% | viability, T/C [36] 1.57%
141 nM: IC50 (second compound 0.0316 µM)

COc1ncnc(C2CC2)c1-c1ncc2cnn(Cc3ccc(-c4nc(C(F)(F)F)cn4C(C)C)cc3)c2n1 + Cc1[nH]c2ccc(F)cc2c1-c1nc2c3cccnc3c3ncccc3c2[nH]1
inactive: viability, T/C [1] 95.7% | viability, T/C [2] 79.5% | viability, T/C [3] 89.6% | viability, T/C [4] 89.9% | viability, T/C [5] 90.3% | viability, T/C [6] 93.2% | viability, T/C [7] 100% | viability, T/C [8] 74.6% | viability, T/C [9] 79.7% | viability, T/C [10] 80.7% | viability, T/C [11] 100% | viability, T/C [12] 71.2% | viability, T/C [13] 63.7% | viability, T/C [14] 51.8% | viability, T/C [15] 72.1% | viability, T/C [16] 62.4% | viability, T/C [17] 72.8% | viability, T/C [18] 46.1%
> 10000 nM: IC50 (second compound 0.0316 µM) | IC50 (second compound 0.1 µM) | IC50 (second compound 0.316 µM)
< 31.6 nM: IC50 (second compound 1 µM) | IC50 (second compound 3.16 µM) | IC50 (second compound 10 µM)
active: viability, T/C [19] 3.69% | viability, T/C [20] 3.51% | viability, T/C [21] 4.12% | viability, T/C [22] 3.46% | viability, T/C [23] 4.03% | viability, T/C [24] 3.74% | viability, T/C [25] 2.91% | viability, T/C [26] 3.63% | viability, T/C [27] 3.35% | viability, T/C [28] 3.99% | viability, T/C [29] 3.54% | viability, T/C [30] 2.75% | viability, T/C [31] 3.12% | viability, T/C [32] 4.19% | viability, T/C [33] 4.15% | viability, T/C [34] 3.3% | viability, T/C [35] 3.45% | viability, T/C [36] 2.6%

CC(C)n1c(=O)n(C)c2cnc3cc(F)c(-c4ccc(OCCCN5CCCCC5)nc4)cc3c21 + Cc1cnc(CNC(=O)c2c(=O)c3ccc(N4CCCN(C)CC4)nc3n3c2sc2ccccc23)cn1
active: viability, T/C [11] 11.3% | viability, T/C [12] 7.45% | viability, T/C [17] 9.7% | viability, T/C [18] 8.1% | viability, T/C [22] 9.18% | viability, T/C [23] 9.72% | viability, T/C [24] 7.74% | viability, T/C [25] 8.77% | viability, T/C [26] 9.43% | viability, T/C [27] 9.15% | viability, T/C [28] 11.1% | viability, T/C [29] 10.6% | viability, T/C [30] 6.66% | viability, T/C [32] 7.9% | viability, T/C [33] 9.45% | viability, T/C [34] 9.57% | viability, T/C [35] 8.82% | viability, T/C [36] 9.01%
inactive: viability, T/C [1] 13.7% | viability, T/C [2] 11.3% | viability, T/C [3] 10.6% | viability, T/C [4] 11.4% | viability, T/C [5] 10.2% | viability, T/C [6] 11.2% | viability, T/C [7] 12.4% | viability, T/C [8] 12.1% | viability, T/C [9] 12.4% | viability, T/C [10] 10.7% | viability, T/C [13] 15.1% | viability, T/C [14] 11.4% | viability, T/C [15] 11.7% | viability, T/C [16] 11.4% | viability, T/C [19] 13% | viability, T/C [20] 12.8% | viability, T/C [21] 9.09% | viability, T/C [31] 12.3%
< 31.6 nM: IC50 (second compound 0.0316 µM) | IC50 (second compound 0.1 µM) | IC50 (second compound 0.316 µM) | IC50 (second compound 1 µM) | IC50 (second compound 3.16 µM) | IC50 (second compound 10 µM)
